Laboratory results: PubChem BioAssay AID1259407 (Chemical Carcinogenesis Research Information System (CCRIS), 2018)
Calls of active or inactive are those of the source. No rule for the calls is given here.

Tested on: CCRIS mutagenicity, Ames/micronucleus/aberration tests
Assay: CCRIS mutagenicity studies
[1] = Test System: AMES SALMONELLA TYPHIMURIUM, Strain/Indicator: TA98, Metabolic Activation: NONE, Method: STANDARD PLATE
[2] = Test System: AMES SALMONELLA TYPHIMURIUM, Strain/Indicator: TA100, Metabolic Activation: NONE, Method: STANDARD PLATE
[3] = Test System: AMES SALMONELLA TYPHIMURIUM, Strain/Indicator: TA98, Metabolic Activation: S-9, Method: STANDARD PLATE

O=C(O)CC(O)C(=O)O (stereo unspecified)
mutagenic call (Test System: AMES SALMONELLA TYPHIMURIUM, Strain/Indicator: TA97, Metabolic Activation: NONE, Method: PREINCUBATION): inactive; negative
mutagenic call (Test System: AMES SALMONELLA TYPHIMURIUM, Strain/Indicator: TA97, Metabolic Activation: NONE, Method: STANDARD PLATE): inactive; negative
mutagenic call (Test System: AMES SALMONELLA TYPHIMURIUM, Strain/Indicator: TA97, Metabolic Activation: RAT, LIVER, S-9, AROCLOR 1254, Method: PREINCUBATION): inactive; negative
mutagenic call (Test System: AMES SALMONELLA TYPHIMURIUM, Strain/Indicator: TA97, Metabolic Activation: RAT, LIVER, S-9, PHENOBARBITAL, Method: STANDARD PLATE): inactive; negative
mutagenic call [1]: inactive; negative
mutagenic call (Test System: AMES SALMONELLA TYPHIMURIUM, Strain/Indicator: TA98, Metabolic Activation: RAT, LIVER, S-9, PHENOBARBITAL, Method: STANDARD PLATE): inactive; negative
mutagenic call [2]: inactive; negative
mutagenic call (Test System: AMES SALMONELLA TYPHIMURIUM, Strain/Indicator: TA100, Metabolic Activation: RAT, LIVER, S-9, PHENOBARBITAL, Method: STANDARD PLATE): inactive; negative
mutagenic call (Test System: AMES SALMONELLA TYPHIMURIUM, Strain/Indicator: TA102, Metabolic Activation: NONE, Method: PREINCUBATION): inactive; negative
mutagenic call (Test System: AMES SALMONELLA TYPHIMURIUM, Strain/Indicator: TA102, Metabolic Activation: RAT, LIVER, S-9, AROCLOR 1254, Method: PREINCUBATION): inactive; negative
mutagenic call (Test System: AMES SALMONELLA TYPHIMURIUM, Strain/Indicator: TA104, Metabolic Activation: NONE, Method: STANDARD PLATE): inactive; negative
mutagenic call (Test System: AMES SALMONELLA TYPHIMURIUM, Strain/Indicator: TA104, Metabolic Activation: RAT, LIVER, S-9, PHENOBARBITAL, Method: STANDARD PLATE): inactive; negative

O=Cc1ccccc1O
mutagenic call [1]: inactive; negative
mutagenic call [3]: inactive; negative
mutagenic call [2]: inactive; negative
mutagenic call (Test System: AMES SALMONELLA TYPHIMURIUM, Strain/Indicator: TA100, Metabolic Activation: S-9, Method: STANDARD PLATE): inactive; negative

Cc1ccccc1-c1nc2ccccc2o1
mutagenic call [1]: inactive; negative
mutagenic call [3]: inactive; negative

Cc1c(N)nc(C(CC(N)=O)NCC(N)C(N)=O)nc1C(=O)NC(C(=O)NC(C)C(O)C(C)C(=O)NC(C(=O)NCCc1nc(-c2nc(C(=O)NCCC[S+](C)C)cs2)cs1)C(C)O)C(O[C@@H]1O[C@@H](CO)[C@@H](O)[C@H](O)[C@@H]1O[C@H]1O[C@H](CO)[C@@H](O)[C@H](OC(N)=O)[C@@H]1O)c1cnc[nH]1 (stereo partly specified)
mutagenic call (End Point: IN VITRO MICRONUCLEUS, Test System: CHO CELLS, Metabolic Activation: RAT, LIVER, S-9, AROCLOR 1254): active; positive
mutagenic call (End Point: In vitro micronucleus, Test System: Human lymphocytes from 200 volunteers (128 women, 72 men), Metabolic Activation: None): inactive; positive for gstt1-null and xd polymorphisms and spontaneous and bleomycin-induc
mutagenic call (Test System: AMES SALMONELLA TYPHIMURIUM, Strain/Indicator: TA98, Metabolic Activation: NONE, Method: PREINCUBATION): inactive; negative
mutagenic call (Test System: AMES SALMONELLA TYPHIMURIUM, Strain/Indicator: TA98, Metabolic Activation: S-9, Method: PREINCUBATION): inactive; negative
mutagenic call (Test System: AMES SALMONELLA TYPHIMURIUM, Strain/Indicator: TA100, Metabolic Activation: NONE, Method: PREINCUBATION): inactive; negative
mutagenic call (Test System: AMES SALMONELLA TYPHIMURIUM, Strain/Indicator: TA100, Metabolic Activation: S-9, Method: PREINCUBATION): inactive; negative
mutagenic call (Test System: AMES SALMONELLA TYPHIMURIUM, Strain/Indicator: TA102, Metabolic Activation: NONE, Method: STANDARD PLATE): active; positive
mutagenic call (Test System: AMES SALMONELLA TYPHIMURIUM, Strain/Indicator: TA2638A, Metabolic Activation: NONE, Method: STANDARD PLATE): inactive; negative
